Results on 2 substances are retold here after PMC5435687 (Scientific Reports, 2017).

Series [1] relates to SH-SY5Y cells. In words: Confocal imaging based quantification of cellular uptake of Aβ. It counts as cell-based, human. As to conditions: for number of internalised Aβ peptides per cell (rounded): SH-SY5Y, 1 µM peptide, 8 h, imaging-based quantification, order-of-magnitude statement; for intravesicular Aβ concentration: re-calculated from molecules per cell (1 µM, 8 h) under assumption of total lysosomal load of 10 μm^3 per cell. How it is done:
The samples were washed 1x in serum free medium prior to incubation with Aβ peptides and/or other reagents also in serum free medium that was supplemented with 30 mM HEPES and 2% B-27. For experiments including Trf B-27 was omitted as it, according to the media formulation provided by the manufacturer, contains unlabelled Trf that interferes with the experiment. Prior to imaging, cells were stained with 50 nM LysoTracker Deep Red for 30 min and 5 µg/ml Hoechst 33342 was added during the last 10 min of incubation. The cells were thereafter washed 1x, treated with 5 µg/ml FM 4–64 and imaged immediately (for labelling of cellular membrane) or after 10 min incubation at 37 °C (for labelling of cellular membrane and endocytic vesicles). Confocal images were acquired either on a Nikon C2+ confocal microscope equipped with a C2-DUVB GaAsP Detector Unit and using an oil-immersion 60 × 1.4 Nikon APO objective (Nikon Instruments, Amsterdam, Netherlands), or on a home-built Thorlabs CLS system equipped with a Galvo:Resonant scanner, a Multi-Channel Fiber-Coupled laser source and High-Sensitivity GaAsP PMT detectors recording onto ThorImageLS software (Thorlabs Inc, New Jersey, U.S.A.). The scanner unit was mounted onto a Leica DMIRB microscope equipped with an oil immersion 63x NA 1.47 Leica HCX PL APO objective for imaging and co-localisation analysis, or a 40x NA 0.55 Leica N PLAN L CORR air objective for quantification of peptide uptake. The sample was excited and detected sequentially with appropriate excitation laser lines and emission filters.
Images were captured with an open pinhole, corresponding to 7.8 airy units (AUs), in order to sample intensity from intracellular peptide throughout the full thickness of the cells. First, to determine an accurate sampling depth, images were acquired at three focal planes separated by 1 µm between each and analysed for matched summed intracellular intensity. Next, images were acquired with identical settings from a field of view with on average 25 cells/image. […] To obtain the total Aβ emission intensity per cell, all pixel values were summed and divided by the total number of cells in the image (the cell number was determined from the number of nuclei visible in the Hoechst emission channel). […] The mean intensity per pixel was calculated and related to concentration by performing a linear regression of mean intensity from three samples per concentration. The imaging depth was calculated based on imaging parameters and objective specifications generating a point spread function (PSF) for the focal spot. The resulting voxel size was calculated to be 740 nm in the axial direction, whereby 2.5x this voxel was determined to be representative of the sampling probe depth. […]

Series [2] has as its system SH-SY5Y cells. In words: Aβ uptake under pharmacological inhibition of endocytic mechanisms (flow cytometry). It counts as cell-based, human. As to conditions: for effect of CPZ on Aβ uptake: 5 µg/ml CPZ; for reduction in Aβ uptake with cytochalasin A or D: 10 µM cytochalasin A or 25 µg/ml cytochalasin D. As to the method:
Flow cytometry was used to quantify cellular uptake. […] For experiments including Trf B-27 was omitted, as outlined above. […] All samples were kept on ice until they were analysed on a Guava EasyCyte 8HT (Millipore, Darmstadt, Germany) that automatically retrieves samples from a 96-well plate. In order to exclude effects due to difference in delay time we used mixed order of analysis, loading only a few samples at a time with the remaining samples kept on ice. The cell counting gate was determined using propidium iodide (0.5 µM, not washed away prior to analysis) and calcein-AM (10 nM, 15 min staining) to distinguish live and dead cells, and for each sample 5,000 cells from within the live gate were counted and analysed. HF488, AlexaFluor488, EGFP and calcein-AM were excited by a 488 nm laser and their fluorescence was detected through a 525/30 nm filter. Propidium iodide and mRFP were excited by the 488 nm laser but detected through a 692/46 nm filter. HF647 and AlexaFluor647 were excited with a 635 nm laser and detected through a 661/19 nm filter. Compensation was performed to adjust for bleed through in experiments including mRFP. Mean cellular uptake was estimated as the average fluorescence intensity of all cells gated within the live region and all individual experiments were performed with three technical replicates (n = 3) unless else is stated. The average fluorescence intensity was baseline corrected by subtracting the signal for unstained cells.
Endocytic mechanisms were also perturbed by treatment of cells with pharmacological inhibitors. Stock solutions of cytochalasin A, cytochalasin D, dynasore, wortmannin and IPA-3 were prepared in DMSO and diluted in serum-free cell culture media supplemented with 30 mM HEPES on the day of the experiment. The final DMSO concentration added to the cells was kept <0.1% and matched for the control. […] The cells were centrifuged 1000 * g for 5 min at 4 °C, washed 3x with ice-cold serum-free medium, followed by detachment and immediate flow cytometry analysis, as detailed above. […] Only the live cells were included in the analysis. Trf was used as a positive control for clathrin-mediated endocytosis. Due to the rapid uptake and recycling of internalized Trf we adopted an optimized protocol with sufficiently short Trf incubation times. First, to remove the quantities of membrane-bound Trf that originate from the serum component of the complete culture medium the cells were washed 3x in serum-free medium. The cells were then subjected to the inhibitors as described above and thereafter exposed to a 5 min pulse of 5 µg/ml Trf. To remove externally bound fluorescently labelled Trf the cells were thereafter washed (3x/2 min) in ice-cold acidic buffer (0.1 M Glycine-HCl buffer pH 2.5 with 150 mM NaCl)[35] whilst kept on ice. The cells were then harvested for flow cytometry analysis, and analysed one sample at a time with mixed order of analysis whilst keeping the remaining samples on ice.

Where [3] appears, read: 1 µM HF488-labelled Aβ 1 h, 4 independent experiments in triplicate.
Where [4] appears, read: 30 min pre-incubation, 1 µM Aβ 1 h, n = 3.

Values joined by “and” are separate entries in the source; they are usually repeats but may differ in a detail not shown here. Identical values can stand only once.

On to “Aβ(1–40): Synthetic 40 residue amyloid-β peptide conjugated to HiLyte Fluor HF488 (or HF647) at the N-terminus, from Anaspec”, for which, in the series with SH-SY5Y cells [1], the “number of internalised Aβ peptides per cell (rounded)” value was 400,000 molecules per cell and ~ 400,000 molecules per cell; the “intravesicular Aβ concentration” value is ~ 60 µM. The “effect of CPZ on Aβ uptake” value in the series with SH-SY5Y cells [2] (setting [3]) is listed as “reductions”. The “reduction in Aβ uptake with IPA-3 and wortmannin” value in the series with SH-SY5Y cells [2] (10 µM IPA-3 or 25 nM wortmannin, 30 min pre-incubation, 1 µM Aβ 1 h, n = 3) is given as ~ 50%. Besides, in the series on SH-SY5Y cells [2] (setting [4]), the “reduction in Aβ uptake with cytochalasin A or D” value is ~ 30%.

On to “Aβ(1–42): Synthetic 42 residue amyloid-β peptide conjugated to HiLyte Fluor HF488 (or HF647) at the N-terminus, from Anaspec”, for which, in the series with SH-SY5Y cells [1], the “number of internalised Aβ peptides per cell (rounded)” value was 800,000 molecules per cell and ~ 800,000 molecules per cell; the “intravesicular Aβ concentration” value was ~ 140 µM. Moreover, in the series on SH-SY5Y cells [2] (setting [3]), the “effect of CPZ on Aβ uptake” value is on record as “impaired to a greater extent than that of Aβ(1–40)”. The “reduction in Aβ uptake with cytochalasin A or D” value with SH-SY5Y cells [2] (setting [4]) is given as ~ 70%. In addition, in the series with SH-SY5Y cells [2] (80 µM dynasore, 30 min pre-incubation, 1 µM HF488-labelled Aβ 1 h, 4 independent experiments in triplicate, ANOVA with Bonferroni), the “effect of dynasore on Aβ uptake” value is on record as “statistically significantly reduced”.
